Tests used:
[1] = tested on: V. cholerae; assay: image-based biofilm inhibition screening platform; type: cell-based
Method: In the present study, a 1,248-member prefractionated marine natural product library was evaluated for biofilm inhibitory activity using a recently-developed image-based screening platform. […] Prefraction 1671D is a semi-purified mixture that contains mixture of several individual compounds. Prefraction 1671D was therefore subjected to one-compound-one-well ‘peak library’ fractionation using the inventors' standard protocol that automatically separates the constituents of prefractions of interest based on HPLC retention times, and connects specific constituents to observed biological activities through secondary screening.
This activity was coupled with a striking biofilm macrocolony phenotype, providing strong justification for purification and full structural characterization of the active constituent. It was from 1671D that “compound 5” was isolated.

[2] = tested on: tested strains; assay: bactericidal activity against tested strains; type: cell-based; details: any of the tested strains
[3] = tested on: HeLa cells; assay: mammalian cell cytotoxicity; type: cell-based; details: up to the highest tested concentration (250 μM)
[4] = tested on: V. cholerae; assay: co-dosing of biofilm inhibitor with sub-MIC and sub-BIC antibiotics, image-based screen

With `C=C1Oc2cc(OC)cc(C(=O)OC)c2NC1=O` [Compound 5] the IC50 ([1]; Vibrio cholerae, read-out: biofilm inhibitory activity (IC50)) was 60.1 µM, the “biofilm phenotype (epifluorescence and confocal images)” value ([1]; on treatment with compound) was “micro-colonies initially become less organized and less tightly packed” and the bactericidal activity [2] was “no bactericidal activity”. The mammalian cell cytotoxicity [3] was “no mammalian cell cytotoxicity”, the biofilm-clearing efficacy ([4]; with sub-BIC concentrations of ceftazidime) was “improve” and the biofilm-clearing efficacy ([4]; with sub-BIC concentrations of ciprofloxacin) was “improve”.

From patent publication US9596855B2, “Small molecule inhibitors of biofilm formation and the novel use of previously identified compounds for inhibition of biofilm formation and applications for drug therapy and medical device coating” (priority 2013, dated 2017)
